The values below come from US20230151075A1, “PARATHYROID HORMONE ATTENUATES LOW BACK PAIN AND OSTEOARTHRITIC PAIN” (The Johns Hopkins University, priority 2019, published 2023).

In one assay the test system is PKA/CREB signaling. The assay is described as follows: Western blot and fluorescent staining of PKA and CREB phosphorylation in primary DRG neurons. Type of assay: cell-based, mice. The protocol: DRG neuron culture was processed as described previously. Saijilafu and Zhou, 2012. Briefly, the dishes or coverslips for DRG neuron culture were coated with 50 μL working solution containing 100 μg/mL Poly-D-Lysine and 10 µg/mL Laminin at 37° C. To prepare the neuron culture medium, alpha minimum essential medium (α-MEM) was supplemented with 1× penicillin-streptomycin solution (500 units of penicillin and 500 μg of streptomycin, Gibco Laboratories, Gaithersburg, Md.), 5% fetal bovine serum (Gibco), 1× GlutaMAX-1 supplement (35050-061, Thermo Fisher Scientific), and the antimitotic reagents containing 20 μM 5-fluoro-2-deoxyuridine (F0503, Sigma-Aldrich) and 20 μM uridine (U3003, Sigma-Aldrich). For the serum-free medium, the fetal bovine serum was replaced with the supplement B27. After euthanizing the 6- to 8-week-old mice, the lumbar DRGs were harvested and stored in microfuge tubes with α-MEM medium placed on ice. […]
The primary DRG neurons were treated with 20 μM PGE2(14010, Cayman Chemical, Ann Arbor, Mich.) for 30 min; 10 μM PKA inhibitor (H-89, BML-E1196, Enzo Life Sciences, Farmingdale, N.Y.) for 1 h. […] Specific antibodies were applied for incubation, and the proteins were detected by using an enhanced chemiluminescence kit (Amersham Bioscience, RNP2108). […]
On the technique in general: Immunoblotting shows a protein as a band on a membrane.

Another assay deals with primary DRG neurons. The assay is described as follows: Sodium indication (ANG-2 AM) in primary DRG neurons. The class given is cell-based, mice. On the procedure:
DRG neuron culture was processed as described previously. Saijilafu and Zhou, 2012. Briefly, the dishes or coverslips for DRG neuron culture were coated with 50 μL working solution containing 100 μg/mL Poly-D-Lysine and 10 µg/mL Laminin at 37° C. To prepare the neuron culture medium, alpha minimum essential medium (α-MEM) was supplemented with 1× penicillin-streptomycin solution (500 units of penicillin and 500 μg of streptomycin, Gibco Laboratories, Gaithersburg, Md.), 5% fetal bovine serum (Gibco), 1× GlutaMAX-1 supplement (35050-061, Thermo Fisher Scientific), and the antimitotic reagents containing 20 μM 5-fluoro-2-deoxyuridine (F0503, Sigma-Aldrich) and 20 μM uridine (U3003, Sigma-Aldrich). For the serum-free medium, the fetal bovine serum was replaced with the supplement B27. After euthanizing the 6- to 8-week-old mice, the lumbar DRGs were harvested and stored in microfuge tubes with α-MEM medium placed on ice. DRG neurons were digested and dissociated with 1 mg/mL collagenase A solution (10103578001, Roche, Basel, Switzerland) in a 37° C. incubator for 90 min followed by 1× TrypLE Express solution (15140-122, Thermo Fisher) at 37° C. for 20 min. Then, TrypLE Express solution was removed, and DRGs were washed gently 3 times with 1 mL prepared culture medium (containing 5% fetal bovine serum). Tissue was triturated by gently pipetting up and down 20-30 times in 1 mL prepared culture medium. After trituration, the DRG neuron suspension was filtered (40-μm strainer) following non-dissociated tissue settlement to the bottom of the microfuge and transferred to another tube. After centrifugation (800 r.p.m for 4 min at room temperature), the cell pellet was resuspended and cultured in a precoated dish.
For sodium indication. ANG-2 AM (Teflabs, Austin, Tex.) was used according to the manufacturer's protocol. Briefly, 1 mM stock solution of ANG-2 AM was diluted to twice the original volume with a solution of 20% Pluronic F-127 (Thermo Fisher Scientific) in DMSO. Then, the ANG-2 AM/Pluronic F-127 solution was dispersed to final concentration at 5 μM ANG-2 AM and 0.1% Pluronic F-127 with serum-free culture medium. After incubation for 1 h at 37° C., the cell loading medium was removed. The cells were washed with serum-free and dye-free medium and prepared for sodium imaging. The sterile imaging buffer contained 5.4 mM KCL, 160 mM NaCL, 20 mM HEPES, 1.3 mM CaCL2, 0.8 mM MgSO4, 0.78 mM NaH2PO4, and 5 mM glucose (pH 7.4) The sodium imaging was monitored and captured using a confocal microscope (Zeiss LSM 780).
In different sets of experiments, the DRG neurons were treated with 20 μM PGE2 (14010, Cayman Chemical, Ann Arbor, Mich.) for 5 min. […]

Assay [1] concerns patients with Modic changes associated LBP. Conditions: cited from earlier work.
The next assay relates to OA joint. Conditions: intra-articular injection; cited from earlier work.

On to `CCCCC[C@H](O)/C=C/[C@H]1[C@H](O)CC(=O)[C@@H]1C/C=C\CCCC(=O)O` [PGE2, Prostaglandin E2], for which the “activation of PKA and CREB” value in the assay with PKA/CREB signaling (PGE2 20 μM 30 min) is listed as “activates”. The PGE2-stimulated sodium influx result in the assay with primary DRG neurons (DRG neurons of EP4−/− mice) is “abolished”. The “sodium influx (fluorescent intensity of sodium indicator)” value in the assay with primary DRG neurons (PGE2 20 μM 5 min, DRG neurons from EP4f/f mice) is on record as “significantly stimulated the enhancement of the fluorescent intensity”.

For the compound `O=S(=O)(NCCNC/C=C/c1ccc(Br)cc1)c1cccc2cnccc12` [PKA inhibitor, H-89], the “PGE2-induced activation of PKA and CREB” value with PKA/CREB signaling (H-89 10 μM 60 min) is “abrogated”. The PGE2-induced sodium influx entry in the assay on primary DRG neurons (PGE2 20 μM combined with H-89 10 μM or siRNA for Nav 1.8) was “ablated”.

For the compound `CCCC(=O)Nc1ncnc2c1ncn2[C@@H]1O[C@@H]2COP(=O)(O)O[C@H]2[C@H]1OC(=O)CCC` [cAMP, dibutyryl-cAMP], the sodium influx entry with primary DRG neurons (DRG neurons of EP4−/− mice, PGE2 combined with cAMP) was “rescued sodium influx”.

For denosumab, the analgesic effects entry in assay [1] was “analgesic effects”.

hyaluronic acid: in the assay with OA joint, the “duration of pain relief” value is given as “up to 6 months”.
